Earlier results in US20150265628A1, “GENOMIC TESTING FOR EFFECTIVE THERAPIES AND DETERMINATION OF DOSING STRATEGY” (CompanionDx Reference Lab, LLC, priority 2014, published 2015).

Experiments:
[1] = patients with schizophrenia, while taking the drug; perphenazine 1.0 as comparator
HLA-DQB1 = details: marker carriers, under the current blood-monitoring system

SMILES | risk of death from suicide, adjusted for risk factors [1] | risk of CIA higher than the overall clozapine-treated population (HLA-DQB1)
OCCOCCN1CCN(C2=Nc3ccccc3Sc3ccccc32)CC1 [quetiapine] | 1.58 | 
OCCN1CCN(CCCN2c3ccccc3Sc3ccc(Cl)cc32)CC1 [perphenazine] | 1.0 | 
CN1CCN(C2=Nc3cc(Cl)ccc3Nc3ccccc32)CC1 [clozapine] | 0.34 | 1,175%
